# Measurements reported in paper PMC11587507, “The Importance of Stereochemistry in 5-HT7R Modulation—A Case Study of Hydantoin Derivatives” (ACS Chemical Neuroscience, 2024).
# What was measured:
# locomotor activity = assay: Spontaneous locomotor activity in mice; format: in vivo
# Procedure: (§1) The behavioral experiments were performed on male BalbC mice weighing 20–25 g, n = 333. The animals were purchased from the Animal House at the Faculty of Pharmacy, Jagiellonian University Medical College, Krakow, Poland. Mice were kept in groups of ten in Makrolon type 3 cages (dimensions 26.5 × 15 × 42 cm). The animals were kept in an environmentally controlled room (ambient temperature 22 ± 2 °C; relative humidity 50–60%; 12:12 light: dark cycle; and lights on at 8:00). They were allowed to acclimatize with the environment enriched by nesting material, tooth grinding material, houses, and toys for 1 week before commencement of the experiments. During acclimatization, mice were accustomed to the presence of female experimenters and their appropriate manner of animals’ restraint, i.e., cupping each separate mouse in open hands, according to the 3Rs recommendations (handling).[50],[51] Standard laboratory food (Sniff M-Z) and filtered water were freely available. All the experiments were conducted in the light phase between 9 AM and 2 PM. Experimental groups consisted of 6–10 randomly selected animals, depending on the experiment, and each animal was used only once. The experiments were performed by an observer who was unaware of the treatment administered. All the experimental procedures with mice were carried out under EU Directive 2010/63/EU and were approved by the Local Ethics Commission for Animal Experiments of Jagiellonian University in Krakow (Approval nos.:297/2019).
# (§2) Compounds were injected once intraperitoneally (i.p.) 60 min before tests, at a volume of 10 mL/kg. Control animals received a vehicle injection according to the same schedule.
# Locomotor activity was recorded with an Opto M3 multichannel activity monitor (Columbus Instruments, Columbus, USA). […] According to the 3Rs recommendations,[54] locomotor activity was assessed for the minimal active doses obtained in FST and/or FPT to ensure that detected antidepressant-/anxiolytic-like effects are not the result of increased motility of mice.
# immobility time = assay: Forced swim test (FST, Porsolt's test) in mice; format: in vivo; settings: 60 min before test
# Procedure: as §1, §2
# The FST experiment was carried out according to the method of Porsolt et al.[52] The total duration of immobility was recorded during the last 4 min of this 6 min period. The reduction of immobility time compared to the control was a measure of antidepressant properties of the tested compound. A mouse was regarded as immobile when it remained floating on water, making only small movements to keep its head above it.
# dopamine D2LR = dopamine D2LR (Homo sapiens, UniProt P14416); assay: Radioligand binding assay, [3H]-raclopride displacement; settings: mean ± SD from two independent measurements; read-out: Ki D2
# dopamine D2LR, sequence (P14416 whole entry): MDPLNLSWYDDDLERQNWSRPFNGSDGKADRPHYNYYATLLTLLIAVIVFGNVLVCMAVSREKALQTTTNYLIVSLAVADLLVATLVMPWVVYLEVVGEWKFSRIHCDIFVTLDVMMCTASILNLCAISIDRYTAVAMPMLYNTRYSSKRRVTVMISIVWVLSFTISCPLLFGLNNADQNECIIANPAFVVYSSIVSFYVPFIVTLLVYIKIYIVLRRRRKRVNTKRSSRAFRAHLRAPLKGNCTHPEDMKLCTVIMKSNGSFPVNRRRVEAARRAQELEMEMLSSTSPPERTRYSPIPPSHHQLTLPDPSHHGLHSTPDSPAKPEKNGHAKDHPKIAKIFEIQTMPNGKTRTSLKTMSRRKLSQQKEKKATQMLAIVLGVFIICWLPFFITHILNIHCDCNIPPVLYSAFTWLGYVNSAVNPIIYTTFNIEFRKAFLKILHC
# Procedure: (§3) Cell pellets were thawed and homogenized in 10 vol of assay buffer using an Ultra Turrax tissue homogenizer and centrifuged twice at 35 000 g for 15 min at 4 °C, with incubation for 15 min at 37 °C in between. The composition of the assay buffers was as follows: for 5-HT1AR: 50 mM Tris HCl, 0.1 mM EDTA, 4 mM MgCl2, 10 μM pargyline and 0.1% ascorbate; for 5-HT2AR: 50 mM Tris HCl, 0.1 mM EDTA, 4 mM MgCl2 and 0.1% ascorbate; for 5- HT7bR: 50 mM Tris HCl, 4 mM MgCl2, […] and 0.1% ascorbate; and for dopamine D2LR: 50 mM Tris HCl, 1 mM EDTA, 4 mM MgCl2, 120 mM NaCl, 5 mM KCl, 1.5 mM CaCl2 and 0.1% ascorbate. All assays were incubated in a total volume of […] in 96-well microtiter plates for 1 h at 37 °C, except 5-HT2AR which was incubated at 27 °C. The process of equilibration was terminated by rapid filtration through Unifilter plates with a 96-well cell harvester, and radioactivity retained on the filters was quantified on a Microbeta plate reader (PerkinElmer, USA). For displacement studies, the assay samples contained as radioligands (PerkinElmer, USA): 2.5 nM [^3H]-8-OH-DPAT (135.2 Ci/mmol) for 5-HT1AR; 1 nM [3H]-ketanserin (53.4 Ci/mmol) for 5- HT2AR; 0.8 nM [3H]-5- CT (39.2 Ci/mmol) for 5-HT7R or 2.5 nM [3H]-raclopride (72 Ci/mmol) for D2LR. Nonspecific binding was defined with […] of 5-HT in 5-HT7R binding experiments, whereas […] were used in 5-HT2AR and D2L assays, respectively. Each compound was tested in triplicate at 7 concentrations (10^–10–10^–4 M). The inhibition constants (Ki) were calculated using the Cheng–Prusoff equation.[48] Results were expressed as means of at least two separate experiments.
# punished crossings = assay: Four-plate test (FPT) in mice; format: in vivo
# Procedure: as §1, §2
# The four-plate apparatus (Bioseb, Pinellas Park, USA) was used for tests. Following a 15 s habituation period, the animal’s motivation to explore a novel environment is suppressed by an electric foot shock (0.8 mA, 0.5 s) every time it moves from one plate to another during a 1 min test session. This action is referred to as a “punished crossing” and is followed by a 3 s shock interval, during which the animal can move across plates without receiving a shock.[53]
# 5-HT1AR = target: T1, 5-HT1AR (Homo sapiens, UniProt P08908); assay: Radioligand binding assay, [3H]-8-OH-DPAT displacement; settings: mean ± SD from two independent measurements; read-out: Ki 5-HT1A
# T1 sequence (P08908 1-422): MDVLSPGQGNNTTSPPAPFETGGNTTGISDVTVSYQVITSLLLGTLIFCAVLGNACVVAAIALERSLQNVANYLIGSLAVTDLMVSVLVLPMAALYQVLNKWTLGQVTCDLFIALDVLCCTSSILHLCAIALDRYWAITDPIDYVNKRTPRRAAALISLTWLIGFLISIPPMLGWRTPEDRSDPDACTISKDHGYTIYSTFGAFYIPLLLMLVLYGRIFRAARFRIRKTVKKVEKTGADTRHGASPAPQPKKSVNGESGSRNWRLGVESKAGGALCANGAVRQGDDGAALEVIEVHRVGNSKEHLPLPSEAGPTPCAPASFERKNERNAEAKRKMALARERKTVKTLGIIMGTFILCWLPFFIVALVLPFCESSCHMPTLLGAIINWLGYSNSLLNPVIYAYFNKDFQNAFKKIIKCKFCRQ
# Procedure: as §3
# 5-HT2AR = 5-HT2AR (Homo sapiens, UniProt P28223); assay: Radioligand binding assay, [3H]-ketanserin displacement; settings: mean ± SD from two independent measurements; read-out: Ki 5-HT2A
# 5-HT2AR, sequence (P28223 whole entry): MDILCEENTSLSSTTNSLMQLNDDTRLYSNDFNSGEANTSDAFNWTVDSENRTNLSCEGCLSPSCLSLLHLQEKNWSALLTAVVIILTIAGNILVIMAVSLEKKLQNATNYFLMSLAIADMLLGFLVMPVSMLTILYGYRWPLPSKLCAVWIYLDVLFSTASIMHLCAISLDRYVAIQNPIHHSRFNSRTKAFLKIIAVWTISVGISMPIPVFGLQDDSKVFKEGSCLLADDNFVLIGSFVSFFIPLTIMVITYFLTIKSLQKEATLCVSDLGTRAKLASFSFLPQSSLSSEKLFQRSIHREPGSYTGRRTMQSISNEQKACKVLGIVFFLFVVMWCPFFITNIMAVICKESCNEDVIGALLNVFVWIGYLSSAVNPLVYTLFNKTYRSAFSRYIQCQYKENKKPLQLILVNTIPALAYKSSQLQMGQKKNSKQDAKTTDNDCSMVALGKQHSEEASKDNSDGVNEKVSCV
# Procedure: as §3
# NK1 = target: T2, NK1 (Homo sapiens, UniProt P25103); assay: NK1 screening at 1 µM (Eurofins Cerep); format: cell-based; settings: read-out: NK1 % inhibition of control agonist response
# T2 construct: Eurofins Cerep
# T2 sequence (P25103 whole entry): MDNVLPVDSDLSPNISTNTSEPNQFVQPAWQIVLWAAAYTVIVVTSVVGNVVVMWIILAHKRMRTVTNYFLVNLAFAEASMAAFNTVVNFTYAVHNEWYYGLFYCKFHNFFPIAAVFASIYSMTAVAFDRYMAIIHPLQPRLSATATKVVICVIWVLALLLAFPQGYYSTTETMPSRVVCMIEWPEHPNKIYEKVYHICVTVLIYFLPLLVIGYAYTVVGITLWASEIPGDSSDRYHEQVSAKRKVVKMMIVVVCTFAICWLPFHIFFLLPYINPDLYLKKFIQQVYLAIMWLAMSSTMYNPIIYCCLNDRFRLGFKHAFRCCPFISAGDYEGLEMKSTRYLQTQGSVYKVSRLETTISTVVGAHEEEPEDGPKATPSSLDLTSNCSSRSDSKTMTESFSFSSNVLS
# Procedure: (§4) 1.In vitro evaluation towards another related protein target (GABA, NK 1)
# (§5) Table S2. Affinity results to GABA and NK 1 […]
# (§6) Screening at 1 µM Screening at 1 µM
# (§7) (% inhibition of control (% of inhibtion of control agonist response) specific binding) […]
# (§8) adata are presented as the mean ± SD from two independent measurements
# (§9) The above biological screening have been performed at Eurofins Cerep (2, rue du Professeur GARGOUÏL, B.P. 30001, 86 600 Celle l'Evescault, France according to previously described […]
# (§10) Tsuji, A. et al. (1988), Antimicrob. Agents Chemother., 32: 190-194.
# (§11) Eistetter, H.R. et al. (1992), Glia, 6: 89-95.
# (§12) Detailed parameters for NK1 assay:
# (§13) Detailed parameters for GABA (non-specific) assay: […]
# GABA (non-specific) = GABA (non-specific) binding screening at 1 µM (Eurofins Cerep)
# Procedure: as §4, §5, §6, §7, §8, §9, §10, §11, §12, §13
# 5-HT7R [1] = target: T3, 5-HT7R (Homo sapiens, UniProt P34969); assay: Radioligand binding assay, [3H]-5-CT displacement; settings: for Ki: mean ± SD from two independent measurements, read-out: Ki 5-HT7
# Procedure: as §3
# Target sequence in this assay (P34969 1-432): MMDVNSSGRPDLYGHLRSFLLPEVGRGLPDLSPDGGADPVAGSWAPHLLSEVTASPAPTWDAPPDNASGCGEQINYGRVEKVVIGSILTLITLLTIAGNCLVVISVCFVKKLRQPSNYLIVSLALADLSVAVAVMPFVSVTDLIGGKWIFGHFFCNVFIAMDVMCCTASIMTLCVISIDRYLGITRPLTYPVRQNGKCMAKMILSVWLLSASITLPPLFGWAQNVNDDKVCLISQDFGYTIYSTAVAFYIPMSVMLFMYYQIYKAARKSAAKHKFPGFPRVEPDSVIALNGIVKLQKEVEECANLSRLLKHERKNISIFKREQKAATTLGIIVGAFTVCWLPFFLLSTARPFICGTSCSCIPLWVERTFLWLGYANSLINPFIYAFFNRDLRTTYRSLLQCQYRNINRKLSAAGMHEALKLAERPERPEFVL
# 5-HT7R [2] = target: T3, 5-HT7R; assay: cAMP functional assay (HTRF), antagonist effect, CHO cells; format: cell-based
# Procedure: The cAMP concentration was measured using the HTRF method. Adenylate cyclase activity was expressed as the percentage of the maximal effect obtained with 300 nM serotonin. The compounds were tested at 7 concentrations (10^–12–10^–6 M) in the h5-HT7 antagonist effect.
# Target sequence in this assay (P34969 1-445 isoform P34969-2): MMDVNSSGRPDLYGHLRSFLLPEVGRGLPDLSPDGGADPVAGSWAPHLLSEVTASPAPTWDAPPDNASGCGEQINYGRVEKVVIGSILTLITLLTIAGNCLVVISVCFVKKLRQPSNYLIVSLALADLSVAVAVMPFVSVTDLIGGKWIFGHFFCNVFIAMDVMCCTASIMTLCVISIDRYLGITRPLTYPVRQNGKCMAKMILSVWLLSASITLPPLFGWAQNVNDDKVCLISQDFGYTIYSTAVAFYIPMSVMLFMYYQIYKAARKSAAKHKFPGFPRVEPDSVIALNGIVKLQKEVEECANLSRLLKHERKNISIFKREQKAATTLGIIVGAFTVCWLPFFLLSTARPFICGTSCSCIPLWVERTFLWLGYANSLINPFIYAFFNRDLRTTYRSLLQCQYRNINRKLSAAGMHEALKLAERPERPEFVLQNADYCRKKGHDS
smiles,measurement,setting,value
COc1ccccc1N1CCN(CC(O)CN2C(=O)NC(C)(c3ccc(F)cc3)C2=O)CC1 (centres unmarked) [Compound 1],locomotor activity number of crossings ± SEM during 1 min,locomotor activity; 2.5 mg/kg i.p.,10.50 ± 4.11; NS
same,locomotor activity number of crossings ± SEM during 60 min,locomotor activity; 2.5 mg/kg i.p.,183.75 ± 33.41; p < 0.001
same,decrease of immobility time vs vehicle,immobility time; 2.5 mg/kg i.p.,about 32%
same,decrease of immobility time vs vehicle,immobility time; 5 mg/kg i.p.,~25%
same,Ki,dopamine D2LR,715 ± 163 nM
same,anxiolytic-like activity,"punished crossings; i.p., all doses tested",inactive
same,Ki,5-HT1AR,121 ± 18 nM
"COc1ccccc1N1CCN(C[C@H](O)CN2C(=O)N[C@](C)(c3ccc(F)cc3)C2=O)CC1 [Compound 5.1, (R)-5-(4-Fluorophenyl)-3-((S)-2-hydroxy-3-(4-(2-methoxyphenyl)piperazin-1-yl)propyl)-5-methylimidazolidine-2,4-dione]",Ki,dopamine D2LR,462 ± 94 nM
same,Ki,5-HT1AR,939 ± 153 nM
"COc1ccccc1N1CCN(C[C@@H](O)CN2C(=O)N[C@](C)(c3ccc(F)cc3)C2=O)CC1 [Compound 5.2, (R)-5-(4-Fluorophenyl)-3-((R)-2-hydroxy-3-(4-(2-methoxyphenyl)piperazin-1-yl)propyl)-5-methylimidazolidine-2,4-dione]",Ki,5-HT2AR,41.1 µM
same,Ki,dopamine D2LR,712 ± 101 nM
same,Ki,5-HT1AR,1880 ± 351 nM
"COc1ccccc1N1CCN(C[C@H](O)CN2C(=O)N[C@@](C)(c3ccc(F)cc3)C2=O)CC1 [Compound 5.3, (S)-5-(4-Fluorophenyl)-3-((S)-2-hydroxy-3-(4-(2-methoxyphenyl)piperazin-1-yl)propyl)-5-methylimidazolidine-2,4-dione]",Ki,dopamine D2LR,1110 ± 137 nM
same,Ki,5-HT1AR,219 ± 43 nM
"COc1ccccc1N1CCN(C[C@@H](O)CN2C(=O)N[C@@](C)(c3ccc(F)cc3)C2=O)CC1 [Compound 5.4, (S)-5-(4-Fluorophenyl)-3-((R)-2-hydroxy-3-(4-(2-methoxyphenyl)piperazin-1-yl)propyl)-5-methylimidazolidine-2,4-dione]",locomotor activity number of crossings ± SEM during 3–6 min,locomotor activity; 5 mg/kg i.p.,138.75 ± 36.61; NS
same,locomotor activity number of crossings ± SEM during 1 min,locomotor activity; 5 mg/kg i.p.,18.50 ± 8.00; NS
same,locomotor activity number of crossings ± SEM during 60 min,locomotor activity; 5 mg/kg i.p.,716.25 ± 117.75; p < 0.001
same,inhibition at 1 µM,NK1,2.9%
same,decrease of immobility time vs vehicle,immobility time; 5 mg/kg i.p.,25%
same,decrease of immobility time vs vehicle,immobility time; 10 mg/kg i.p.,20%
same,Ki,5-HT2AR,21.8 µM
same,Ki,dopamine D2LR,888 ± 97 nM
same,GABA (non-specific) % of inhibition of control specific binding,GABA (non-specific),7%
same,anxiolytic-like activity,"punished crossings; i.p., all doses tested",inactive
same,Ki,5-HT1AR,306 ± 71 nM
"C[C@]1(c2ccc(F)cc2)NC(=O)N(C[C@@H](O)CN2CCN(C(c3ccccc3)c3ccccc3)CC2)C1=O [Compound 6.1, (R)-3-((S)-3-(4-Benzhydrylpiperazin-1-yl)-2-hydroxypropyl)-5-(4-fluorophenyl)-5-methylimidazolidine-2,4-dione]",Ki,5-HT7R [1],2900 ± 461 nM
same,Ki,5-HT2AR,12.3 µM
same,Ki,dopamine D2LR,463 ± 75 nM
"C[C@]1(c2ccc(F)cc2)NC(=O)N(C[C@H](O)CN2CCN(C(c3ccccc3)c3ccccc3)CC2)C1=O [Compound 6.2, (R)-3-((R)-3-(4-Benzhydrylpiperazin-1-yl)-2-hydroxypropyl)-5-(4-fluorophenyl)-5-methylimidazolidine-2,4-dione]",Ki,5-HT7R [1],9090 ± 1700 nM
same,Ki,5-HT2AR,11.4 µM
same,Ki,dopamine D2LR,1520 ± 331 nM
"C[C@@]1(c2ccc(F)cc2)NC(=O)N(C[C@@H](O)CN2CCN(C(c3ccccc3)c3ccccc3)CC2)C1=O [Compound 6.3, (S)-3-((S)-3-(4-Benzhydrylpiperazin-1-yl)-2-hydroxypropyl)-5-(4-fluorophenyl)-5-methylimidazolidine-2,4-dione]",Ki,5-HT7R [1],120 ± 27 nM
same,Ki,5-HT2AR,4.13 ± 0.983 µM
same,Ki,dopamine D2LR,312 ± 52 nM
"C[C@@]1(c2ccc(F)cc2)NC(=O)N(C[C@H](O)CN2CCN(C(c3ccccc3)c3ccccc3)CC2)C1=O [Compound 6.4, (S)-3-((R)-3-(4-Benzhydrylpiperazin-1-yl)-2-hydroxypropyl)-5-(4-fluorophenyl)-5-methylimidazolidine-2,4-dione]",locomotor activity number of crossings ± SEM during 3–6 min,locomotor activity; 1.25 mg/kg i.p.,63.75 ± 25.93; NS
same,locomotor activity number of crossings ± SEM during 1 min,locomotor activity; 1.25 mg/kg i.p.,4.25 ± 0.46; NS
same,locomotor activity number of crossings ± SEM during 60 min,locomotor activity; 1.25 mg/kg i.p.,694.25 ± 78.90; NS
same,locomotor activity number of crossings ± SEM during 3–6 min,locomotor activity; 2.5 mg/kg i.p.,105.75 ± 49.57; NS
same,locomotor activity number of crossings ± SEM during 60 min,locomotor activity; 2.5 mg/kg i.p.,922.50 ± 74.78; p < 0.001
same,Ki,5-HT7R [1],8 ± 3 nM
same,fold higher 5-HT7R affinity in comparison to 2,5-HT7R [1]; ratio of Ki values,~10 fold
same,inhibition at 1 µM,NK1,-4.4%
same,decrease of immobility time vs vehicle,immobility time; 2.5 mg/kg i.p.,29%
same,Ki,5-HT2AR,5.79 ± 1.07 µM
same,Ki,dopamine D2LR,511 ± 96 nM
same,GABA (non-specific) % of inhibition of control specific binding,GABA (non-specific),26%
same,anxiolytic-like activity,punished crossings; 5 mg/kg i.p.,did not reach significant levels
same,anxiolytic-like activity,"punished crossings; doses of 1.25, 2.5 and 10 mg/kg i.p.",active
same,increase of number of punished crossings vs vehicle,"punished crossings; i.p., active doses",about 60%
same,Ki,5-HT1AR,8930 ± 1840 nM
same,intrinsic activity at 5-HT7R,5-HT7R [2]; cAMP functional test,antagonists
same,IC50,"5-HT7R [2]; cAMP, CHO cells, h5-HT7 antagonist effect vs 300 nM serotonin",113 ± 25 nM
same,Kb,"5-HT7R [2]; cAMP, CHO cells, h5-HT7 antagonist effect, read-out: Kb ± SEM",14 ± 3 nM
